# Literature values in patent publication US20070098469A1, “Fixing apparatus for nonheat fixing system, and image forming apparatus having fixing apparatus” (priority 2005, published 2007).
# Conditions: in vivo
row,SMILES,LD50
1,CCO [Ethanol],20000 mg/kg
2,CCCCOC(=O)CCCCCCCCC(=O)OCCCC [Di-n-butyle sebacate],14900 mg/kg
3,CCOCCOC(=O)CCC(=O)OCCOCC [Diethoxyethyl succinate],5000 mg/kg
4,CC(C)COC(=O)CCCCC(=O)OCC(C)C [Diisobutyl adipate],12300 mg/kg
